Results as given in patent US20260216135A1, “ANTIVIRAL PHARMACEUTICAL COMPOSITION AND PREPARATION METHOD THEREFOR” (priority 2023, published 2026).
Like-named read-outs stand apart in the source and are kept apart here.

How the values were obtained:
[1] = test system: SARS-CoV-2 Omicron strain (B.1.1.529); experiment: microbe, parasite or virus in culture; conditions: Severe acute respiratory syndrome coronavirus 2, Vero C1008, read-out: IC50 (μM), Vero E6 Omicron strain (B.1.1.529)
[2] = test system: SARS-CoV-2 Delta strain; conditions: for Viral load, brain tissue, Day 4 / Viral load, lung tissue, Day 2: intragastric BID, mean ± SD
[3] = test system: 47 safety-related targets; conditions: read-out: EC50 for 47 safety-related targets (inhibition or activation)
Text: For 78 tests related to 47 safe targets, the experimental methods used included: CAMP assay, calcium flux assay, hormone nuclear receptor assay, kinase binding assay, enzyme activity assay, neurotransmitter transporter assay, ion channel assay, and transporter assay.

[4] = 200 mg/kg + ritonavir 50 mg/kg, listed as compound of formula (I)

**Q.** How did the IC50 [1] turn out when `CC(C)(C)[C@H](NC(=O)C(F)(F)F)C(=O)N1CC2(C[C@H]1C(=O)N[C@H](C#N)C[C@@H]1CCNC1=O)SCCS2` [Compound of formula (I)] was run?
**A.** 0.12 µM

**Q.** What about the “Viral load, brain tissue, Day 4” value ([2]; 50 mg/kg + ritonavir 50 mg/kg) of the same compound?
**A.** 2.88 ± 1.26 log10 copies/mg

**Q.** And the “Viral load, lung tissue, Day 2” value ([2]; 50 mg/kg + ritonavir 50 mg/kg)?
**A.** 7.66 ± 0.27 log10 copies/g

**Q.** And the “Viral load, lung tissue, Day 2” value ([2]; 50 mg/kg + ritonavir 50 mg/kg, listed as compound of formula (I))?
**A.** 7.66 log10 copies/g

**Q.** And the “Viral load, brain tissue, Day 4” value ([2]; 200 mg/kg + ritonavir 50 mg/kg)?
**A.** 0.99 ± 0.42 log10 copies/mg

**Q.** And the “Viral load, lung tissue, Day 2” value ([2]; 200 mg/kg + ritonavir 50 mg/kg)?
**A.** 6.79 ± 0.30 log10 copies/g

**Q.** And the “Viral load, brain tissue, Day 4” value [2, 4]?
**A.** comparable to that of the uninfected normal group

**Q.** And the “Viral load, lung tissue, Day 2” value [2, 4]?
**A.** 6.79±0.30 log10 copies/g

**Q.** What about the “Histopathological analysis of the lungs” value ([2]; 200 mg/kg, compared with model group) of the same compound?
**A.** significantly ameliorated lung damage

**Q.** And the “Body weight of mice” value ([2]; mouse, in vivo)?
**A.** not significantly reduced

**Q.** What about the “Reduction of viral copy number in the lungs compared with the model group” value ([2]; mouse, in vivo) of the same compound?
**A.** 2.4 log 10 copies/g

**Q.** What about the “Reduction of viral titer in the lungs compared to the model group” value ([2]; mouse, in vivo) of the same compound?
**A.** more than 3 log 10 PFU/g

**Q.** What about the “Virus titer in the brains (plaque assay)” value ([2]; mouse, in vivo) of the same compound?
**A.** no virus titer was detected

**Q.** What about the EC50 [3] of the same compound?
**A.** > 100 µM
